Patent publication US7056891B2 (priority 2000, dated 2006)
Read-outs that look alike come from different tables or passages of the source.

Columns and labels:
S. aureus MN8 = assay type: cell-based, Staphylococcus aureus; conditions: 24 hours at 35° C.
TSST-1 = assay type: cell-based, S. aureus MN8

Substance | Final [S. aureus] (S. aureus MN8) | TSST-1 (TSST-1) [ng/mL] | TSST-1 (TSST-1; 24 hours at 35° C.) [ng/mL]
PPG-5 Laureth-5 | 3.82 x10^9 CFU/ml | 609.2 | –
Laureth-4 | 4.57 x10^9 CFU/ml | – | 531.8
Steareth-2 | 5.76 x10^9 CFU/ml | – | 680.7
